Source: patent US20140179681A1, “METHODS AND COMPOSITIONS OF TARGETED DRUG DEVELOPMENT” (priority 2010, published 2014)
Read-outs that look alike come from different tables or passages of the source.

System: MDBK line
Experiment: MTT Cell Proliferation Assay, MDBK cells
Assay type: cell-based, bovine
Conditions: for IC50: Bos taurus, MDBK, Table 11, second of x/y(ratio): MDBK
How it was run: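 Each concentration ran in quadruplicate across duplicate plates, with compounds serially diluted in DMSO and delivered at 0.5% DMSO in 0.5% FBS medium for 3 days.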

CCc1cc2c(CN3CCN(Cc4ccc5c(c4)OCO5)CC3)cc(=O)oc2cc1O [AD4-1734]
IC50 (unit inferred, read-out: MTT Follow-up (second value)): 40.2 µM | IC50 (unit not printed (doses in μM), read-out: MTT Screen (second value)): 42.5 µM | activity in MDBK cells (standard at 23.5 μM final concentration): 0 | activity in MDBK cells (standard at 31.125 μM final concentration): less than 50%
